Measured values as given in patent publication US11040970B2, “VMAT2 inhibitor compounds and compositions thereof” (Neurocrine Biosciences, Inc., priority 2017, dated 2021).

Biological target: VMAT2 (Homo sapiens (Human), UniProt Q05940)
Experiment: VMAT2 radioligand binding assay: competition against 3H-dihydrotetrabenezine on human platelet homogenate (modified procedure)
Conditions: 10 nM 3H-dihydrotetrabenezine, 25° C., 90 minutes
Description: Examples of techniques for determining the capability of a compound to inhibit VMAT2 are provided below. The procedure is adapted from that described previously (see, e.g., Near, (1986), Mol. Pharmacol. 30: 252-57; Teng, et al., J. Neurochem. 71, 258-65, 1998). Homogenates from human platelets or Sprague-Dawley rat forebrain were prepared by homogenization and then washed by centrifugation as described previously (see, e.g., Hoare et al., (2003) Peptides 24:1881-97). […] Following incubation at 25° C. for two hours, bound radioligand was collected by rapid filtration onto GF/B glass fiber filters using a Unifilter-96 Harvester (PerkinElmer). Filter plates were pre-treated for 10 minutes with 0.1% polyethylenimine, and following harvesting the filter plates were washed with 800 μl VMAT2 binding buffer. Bound radioligand was quantified by scintillation counting using a Topcount NXT (PerkinElmer).
Following incubation at 25° C. for 90 minutes, bound radioligand was collected by rapid filtration onto GF/B glass fiber filters using a Unifilter-96 Harvester (PerkinElmer). Filter plates were pre-treated with 0.1% polyethylenimine and allowed to dry overnight, and following harvesting the filter plates were washed with 800 μl VMAT2 binding buffer. Bound radioligand was quantified by scintillation counting using a Topcount NXT (PerkinElmer).

VMAT2, sequence (Q05940 whole entry): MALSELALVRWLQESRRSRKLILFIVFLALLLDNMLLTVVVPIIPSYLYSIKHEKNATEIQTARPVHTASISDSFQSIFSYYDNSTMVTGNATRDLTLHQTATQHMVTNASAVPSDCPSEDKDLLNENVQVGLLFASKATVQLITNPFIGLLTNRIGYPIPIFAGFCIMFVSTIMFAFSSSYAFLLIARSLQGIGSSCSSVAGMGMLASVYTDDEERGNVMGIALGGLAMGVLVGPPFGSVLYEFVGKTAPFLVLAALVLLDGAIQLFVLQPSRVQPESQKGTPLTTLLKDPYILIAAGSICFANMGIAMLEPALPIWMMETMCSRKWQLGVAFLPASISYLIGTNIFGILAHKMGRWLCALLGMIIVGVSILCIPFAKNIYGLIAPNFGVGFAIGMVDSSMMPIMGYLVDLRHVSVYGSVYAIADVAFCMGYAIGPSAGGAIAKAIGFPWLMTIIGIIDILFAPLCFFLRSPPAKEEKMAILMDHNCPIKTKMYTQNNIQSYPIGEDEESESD

**Q.** Which Ki does the source give for `COc1cc2c(cc1OCC1CC1(F)F)CCN1C[C@@H](CC3CCC3)N(C)C[C@H]21` (stereo partly drawn) [Compound 8-3, (3R,11bS)-3-(cyclobutylmethyl)-9-[(2,2-difluorocyclopropyl)methoxy]-10-methoxy-2-methyl-1H,2H,3H,4H,6H,7H,11bH-piperazino[2,1-a]isoquinoline] here?
**A.** 10 to 500 nM

**Q.** Which Ki does the source give for `COc1cc2c(cc1OCCF)CCN1C[C@@H](CC3CCC3)N(C)C[C@H]21` [Compound 8-4, (3R,11bS)-3-(cyclobutylmethyl)-9-(2-fluoroethoxy)-10-methoxy-2-methyl-1H,2H,3H,4H,6H,7H,11bH-piperazino[2,1-a]isoquinoline] here?
**A.** 10 to 500 nM

**Q.** Which Ki does the source give for `COc1cc2c(cc1OCC1CC1)CCN1C[C@@H](CC3CCC3)N(C)C[C@H]21` [Compound 8-5, (3R,11bS)-3-(cyclobutylmethyl)-9-(cyclopropylmethoxy)-10-methoxy-2-methyl-1H,2H,3H,4H,6H,7H,11bH-piperazino[2,1-a]isoquinoline] here?
**A.** 10 to 500 nM

**Q.** With `COc1cc2c(cc1OCC1CCC1)CCN1C[C@@H](CC3CCC3)N(C)C[C@H]21` [Compound 8-6, (3R,11bS)-9-(cyclobutylmethoxy)-3-(cyclobutylmethyl)-10-methoxy-2-methyl-1H,2H,3H,4H,6H,7H,11bH-piperazino[2,1-a]isoquinoline] as the compound, how does the Ki read?
**A.** < 10 nM

**Q.** Which Ki does the source give for `COc1cc2c(cc1OCCCC(F)(F)F)CCN1C[C@@H](CC3CCC3)N(C)C[C@H]21` [Compound 8-7, (3R,11bS)-3-(cyclobutylmethyl)-10-methoxy-2-methyl-9-(4,4,4-trifluorobutoxy)-1H,2H,3H,4H,6H,7H,11bH-piperazino[2,1-a]isoquinoline] here?
**A.** 10 to 500 nM

**Q.** For `COc1cc2c(cc1OCCCCF)CCN1C[C@@H](CC3CCC3)N(C)C[C@H]21` [Compound 8-8, (3R,11bS)-3-(cyclobutylmethyl)-9-(4-fluorobutoxy)-10-methoxy-2-methyl-1H,2H,3H,4H,6H,7H,11bH-piperazino[2,1-a]isoquinoline], which Ki is on record?
**A.** 10 to 500 nM

**Q.** Which Ki does the source give for `COc1cc2c(cc1OCCCF)CCN1C[C@@H](CC3CCC3)N(C)C[C@@H]21` [Compound 9-1, (3R,11bR)-3-(cyclobutylmethyl)-9-(3-fluoropropoxy)-10-methoxy-2-methyl-1H,2H,3H,4H,6H,7H,11bH-piperazino[2,1-a]isoquinoline] here?
**A.** > 500 nM

**Q.** Which Ki does the source give for `COc1cc2c(cc1OCCCF)CCN1C[C@@H](CC(C)(C)C)N(C)C[C@H]21` [Compound 11-1, (3R,11bS)-3-(2,2-dimethylpropyl)-9-(3-fluoropropoxy)-10-methoxy-2-methyl-1H,2H,3H,4H,6H,7H,11bH-piperazino[2,1-a]isoquinoline] here?
**A.** < 10 nM

**Q.** Which Ki does the source give for `COc1cc2c(cc1OC)[C@H]1CN(C)[C@H](CC(C)(C)C)CN1CC2` [Compound 11-2, (3R,11bS)-3-(2,2-dimethylpropyl)-9,10-dimethoxy-2-methyl-1H,2H,3H,4H,6H,7H,11bH-piperazino[2,1-a]isoquinoline] here?
**A.** < 10 nM

**Q.** For `COc1cc2c(cc1OCC(F)(F)F)CCN1C[C@@H](CC(C)(C)C)N(C)C[C@H]21` [Compound 11-3, (3R,11bS)-3-(2,2-dimethylpropyl)-10-methoxy-2-methyl-9-(2,2,2-trifluoroethoxy)-1H,2H,3H,4H,6H,7H,11bH-piperazino[2,1-a]isoquinoline], which Ki is on record?
**A.** < 10 nM

**Q.** With `COc1cc2c(cc1OCC1CC1(F)F)CCN1C[C@@H](CC(C)(C)C)N(C)C[C@H]21` (stereo partly drawn) [Compound 11-4, (3R,11bS)-9-[(2,2-difluorocyclopropyl)methoxy]-3-(2,2-dimethylpropyl)-10-methoxy-2-methyl-1H,2H,3H,4H,6H,7H,11bH-piperazino[2,1-a]isoquinoline] as the compound, how does the Ki read?
**A.** < 10 nM

**Q.** For `COc1cc2c(cc1OCCC(F)(F)F)CCN1C[C@@H](CC(C)(C)C)N(C)C[C@H]21` [Compound 11-5, (3R,11bS)-3-(2,2-dimethylpropyl)-10-methoxy-2-methyl-9-(3,3,3-trifluoropropoxy)-1H,2H,3H,4H,6H,7H,11bH-piperazino[2,1-a]isoquinoline], which Ki is on record?
**A.** < 10 nM

**Q.** For `COc1cc2c(cc1OCCF)CCN1C[C@@H](CC(C)(C)C)N(C)C[C@H]21` [Compound 11-6, (3R,11bS)-3-(2,2-dimethylpropyl)-9-(2-fluoroethoxy)-10-methoxy-2-methyl-1H,2H,3H,4H,6H,7H,11bH-piperazino[2,1-a]isoquinoline], which Ki is on record?
**A.** < 10 nM

**Q.** With `COc1cc2c(cc1OCC1CC1)CCN1C[C@@H](CC(C)(C)C)N(C)C[C@H]21` [Compound 11-7, (3R,11bS)-9-(cyclopropylmethoxy)-3-(2,2-dimethylpropyl)-10-methoxy-2-methyl-1H,2H,3H,4H,6H,7H,11bH-piperazino[2,1-a]isoquinoline] as the compound, how does the Ki read?
**A.** < 10 nM

**Q.** For `COc1cc2c(cc1OCC1CCC1)CCN1C[C@@H](CC(C)(C)C)N(C)C[C@H]21` [Compound 11-8, (3R,11bS)-9-(cyclobutylmethoxy)-3-(2,2-dimethylpropyl)-10-methoxy-2-methyl-1H,2H,3H,4H,6H,7H,11bH-piperazino[2,1-a]isoquinoline], which Ki is on record?
**A.** < 10 nM

**Q.** Which Ki does the source give for `COc1cc2c(cc1OCCCC(F)(F)F)CCN1C[C@@H](CC(C)(C)C)N(C)C[C@H]21` [Compound 11-9, (3R,11bS)-3-(2,2-dimethylpropyl)-10-methoxy-2-methyl-9-(4,4,4-trifluorobutoxy)-1H,2H,3H,4H,6H,7H,11bH-piperazino[2,1-a]isoquinoline] here?
**A.** < 10 nM

**Q.** With `COc1cc2c(cc1OCCCCF)CCN1C[C@@H](CC(C)(C)C)N(C)C[C@H]21` [Compound 11-10, (3R,11bS)-3-(2,2-dimethylpropyl)-9-(4-fluorobutoxy)-10-methoxy-2-methyl-1H,2H,3H,4H,6H,7H,11bH-piperazino[2,1-a]isoquinoline] as the compound, how does the Ki read?
**A.** < 10 nM

**Q.** With `COCCOc1cc2c(cc1OC)[C@H]1CN(C)[C@H](CC(C)(C)C)CN1CC2` [Compound 11-11, (3R,11bS)-3-(2,2-dimethylpropyl)-10-methoxy-9-(2-methoxyethoxy)-2-methyl-1H,2H,3H,4H,6H,7H,11bH-piperazino[2,1-a]isoquinoline] as the compound, how does the Ki read?
**A.** 10 to 500 nM

**Q.** With `CCOc1cc2c(cc1OC)[C@H]1CN(C)[C@H](CC(C)(C)C)CN1CC2` [Compound 11-12, (3R,11bS)-3-(2,2-dimethylpropyl)-9-ethoxy-10-methoxy-2-methyl-1H,2H,3H,4H,6H,7H,11bH-piperazino[2,1-a]isoquinoline] as the compound, how does the Ki read?
**A.** < 10 nM

**Q.** With `COc1cc2c(cc1OC(C)C)CCN1C[C@@H](CC(C)(C)C)N(C)C[C@H]21` [Compound 11-13, (3R,11bS)-3-(2,2-dimethylpropyl)-10-methoxy-2-methyl-9-(propan-2-yloxy)-1H,2H,3H,4H,6H,7H,11bH-piperazino[2,1-a]isoquinoline] as the compound, how does the Ki read?
**A.** < 10 nM

**Q.** With `COc1cc2c(cc1OCCCF)CCN1C[C@@H](CC(C)(C)C)N(C)C[C@@H]21` [Compound 12-1, (3R,11bR)-3-(2,2-dimethylpropyl)-9-(3-fluoropropoxy)-10-methoxy-2-methyl-1H,2H,3H,4H,6H,7H,11bH-piperazino[2,1-a]isoquinoline] as the compound, how does the Ki read?
**A.** 10 to 500 nM

**Q.** For `COc1cc2c(cc1OC)[C@@H]1CN(C)[C@H](CC(C)(C)C)CN1CC2` [Compound 12-2, (3R,11bR)-3-(2,2-dimethylpropyl)-9,10-dimethoxy-2-methyl-1H,2H,3H,4H,6H,7H,11bH-piperazino[2,1-a]isoquinoline], which Ki is on record?
**A.** > 500 nM

Test system: vesicular monoamine transporter-2 (VMAT2)
Experiment: not given
Conditions: read-out: IC50 catecholamine uptake by VMAT2; cited from earlier work

**Q.** For `COc1cc2c(cc1OC)C1CC(=O)C(CC(C)C)CN1CC2` (centres unmarked) [Tetrabenazine, 3-Isobutyl-9,10-dimethoxy-1,3,4,6,7,11b-hexahydro-2H-pyrido[2,1-a]-isoquinolin-2-one], which IC50 is on record?
**A.** […]
